Data on three molecules can be found in patent publication US20190375778A1, “ADENOSINE DERIVATIVES FOR USE IN THE TREATMENT OF CANCER” (NuCana plc, priority 2016, published 2019).

Type in all cases: cell-based
For one assay, the system named is Jurkat. The assay can be described thus: CellTiterGlo viability assay, Jurkat. The following applies: Homo sapiens, 72 h, read-out: IC50 Jurkat. The method, then:
(§1) In vitro viability assay were performed to assess the effects of compounds on cell viability in selected cell lines over ˜72 hrs using the CellTiterGlo (CTG, Promega-G7573) assay. The tests were performed in duplicates with treatment of compounds at 9 points, 3.16 folds titration in 96 well plates over ˜72 hrs. The compound starting concentrations were 198 μM. Cell viability assay using CellTiterGlo in 96-well plate were performed. Compound treatment 72 hrs, standard growth conditions, duplicates. Compounds were dissolved to 40 mM with thawed […]. Compounds were serially diluted at 3.16 fold in thawed DMSO, and warmed to 37° C. before being dissolved in media (2 μl+200 μl). After compounds were dissolved in media, media containing compounds were warmed to 37° C. in incubator and then compounds in media were added to cell plates (50 μl+50 μl) in duplicates. The compounds' final concentrations were from […] to 19.9 nM. All compound solubilities were checked and recorded again, then the plates were transferred to CO2 tissue culture incubator immediately and incubated for 3 days. DMSO final concentration is 0.5%.
On the technique in general: ATP-based viability assays read luminescence as a measure of living cells.

A further assay relates to Murine leukemia L1210. The assay can be described thus: Cell proliferation (Coulter count) assay, L1210. Particulars: Mus musculus, 48 h, read-out: absolute IC50, L1210. The gist of the method:
(§2)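 Cells grown in DMEM with 10% FBS. HeLa seeded at 10 000 cells/well, compound added after 24 h, counted day 5; L1210 and CEM seeded at 60 000 cells/well with compound, counted after 48 h and 72 h respectively. IC50 is concentration halving proliferation by Coulter count.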

The subject of a further assay is MCF7. As to the kind of experiment: CellTiterGlo viability assay, MCF7. The following applies: Homo sapiens, MCF7, 72 h, read-out: IC50 MCF7. The procedure:
as §1

In a further assay the test system is RL. As to the kind of experiment: CellTiterGlo viability assay, RL. Particulars: Homo sapiens, RL, 72 h, read-out: IC50 RL. The procedure: as §1
Another assay deals with CCRFCEM. The assay can be described thus: CellTiterGlo viability assay, CCRFCEM. The following applies: Homo sapiens, CCRF-CEM, 72 h, read-out: IC50 CCRFCEM. The procedure:
as §1

A further assay concerns A549. As to the kind of experiment: MTT cytotoxicity assay, A549. The following applies: Homo sapiens, 96 h compound exposure, read-out: absolute IC50, A549. An excerpt:
Lovo: cell line derived from a metastatic site in a patient with colon cancer MCF7: human oestrogen sensitive mammary epithelial cell line PC3: human prostate cancer cell line A549: cancerous lung tissue derived cells L1210: lymphoblast cell line derived from a mouse with lymphocytic leukaemia FM3A: mammary carcinoma murine cells CEM: human T-lymphoblasts, derived from the blood of a patient with acute lymphoblastic leukaemia HeLa: epithelial cells from a patient with cervical adenocarcinoma
Anti-tumour evaluation in MCF7, LoVo, A549 and PC3 cell lines was performed by MTT assay. Compounds were prepared as 0.1-100 mM stock solutions dissolved in DMSO and stored at −20° C. Cells were seeded into 96-well microtitre plates at a density of 5×10^3 cells per well and allowed 24 hours to adhere. Decimal compound dilutions were prepared in medium immediately prior to each assay (final concentration 0.1-100 μM). Experimental medium was DMEM+10% FCS (PC3 and Lovo) or RPMI+10% heat inactivated FCS (A549 and MCF7). Following 96 h compound exposure at 37° C., 5% CO2, MTT reagent (Sigma Aldrich) was added to each well (final concentration 0.5 mg/ml). Incubation at 37° C. for 4 h allowed reduction of MTT by viable cells to an insoluble formazan product. MTT was removed and formazan solubilised by addition of 10% Triton X-100 in PBS. Absorbance was read on a Tecan Sunrise spectrophotometer at 540 nm as a measure of cell viability; thus inhibition relative to control was determined (IC50).
(In general: Formazan colour is commonly taken as a measure of viable cells.)

Another assay relates to HS445. The assay can be described thus: CellTiterGlo viability assay, HS445. The following applies: Hs 445, 72 h, read-out: IC50 HS445. The method, then:
as §1

Another assay concerns HL-60. As to the kind of experiment: CellTiterGlo viability assay, HL-60. Particulars: Homo sapiens, HL-60, 72 h, read-out: IC50 HL-60. The method, then:
as §1

A further assay has as its system Z138. As to the kind of experiment: CellTiterGlo viability assay, Z138. The following applies: Homo sapiens, Z-138, 72 h, read-out: IC50 Z138. The method, then: as §1
Another assay has as its system K562. The assay can be described thus: CellTiterGlo viability assay, K562. Particulars: Homo sapiens, K562, 72 h, read-out: IC50 K562. The procedure: as §1
A further assay deals with HEL92.1.7. As to the kind of experiment: CellTiterGlo viability assay, HEL92.1.7. The following applies: Homo sapiens, HEL 92.1.7, 72 h, read-out: IC50 HEL92.1.7. The procedure:
as §1

For another assay, the system named is NCI-H929. The assay can be described thus: CellTiterGlo viability assay, NCI-H929. The following applies: Homo sapiens, NCI-H929, 72 h, read-out: IC50 NCI-H929. The procedure:
as §1

In another assay the test system is HepG2. As to the kind of experiment: CellTiterGlo viability assay, HepG2. The following applies: Homo sapiens, HepG2, 72 h, read-out: IC50 HepG2. The procedure:
as §1

The subject of assay [1] is human cervix carcinoma HeLa cells. The assay can be described thus: Cell proliferation (Coulter count) assay, HeLa. Particulars: 120 h, cell count on day 5, read-out: absolute IC50, HeLa. The gist of the method:
as §2

The structures appear in SMILES notation. Some results are limits rather than exact numbers.

Take `CC(C)C[C@H](NP(=O)(OC[C@H]1O[C@@H](n2c(Cl)nc3c(N)ncnc32)C(O)C1O)Oc1ccccc1)C(=O)OCc1ccccc1` (stereo partly drawn) [V, 5′-([(Benzyloxy-L-leucin-N-yl)-phenyl]-phosphatyl) 8-chloroadenosine]: the IC50 was 5 to 15 µM in the assay with Jurkat; 15 to 100 µM in the assay with Murine leukemia L1210; 0.1 to 5 µM in the assay with MCF7; 15 to 100 µM with RL; 5 to 15 µM in the assay on CCRFCEM; 0.1 to 5 µM with A549. Also, the IC50 was in the range of 15 to 100 µM with HS445; 5 to 15 µM with HL-60; 100 to 5000 nM in the assay with Z138; 0.1 to 5 µM in the assay with K562; 0.1 to 5 µM with HEL92.1.7; 0.1 to 5 µM in the assay with NCI-H929. For the same molecule, the IC50 (with HepG2; in assay [1]) was 0.1 to 5 µM throughout.

As for `CCCCCOC(=O)[C@H](C)NP(=O)(OC[C@H]1O[C@@H](n2c(Cl)nc3c(N)ncnc32)C(O)C1O)Oc1cccc2ccccc12` (stereo partly drawn) [Compound E, (2S)-Pentyl 2-(((((2R,3S,4R,5R)-5-(6-amino-8-chloro-9H-purin-9-yl)-3,4-dihydroxy-tetrahydrofuran-2-yl)methoxnaphthalene-1-yloxy)phosphoryl)amino)propanoate], the half-inhibitory concentration (IC50) in the assay with Jurkat was 0.1 to 5 µM; with Murine leukemia L1210, 5 to 15 µM; in the assay with MCF7, 0.1 to 5 µM; in the assay with RL, 5 to 15 µM; in the assay with CCRFCEM, 0.1 to 5 µM; in the assay on HS445, 15 to 100 µM. Moreover, the IC50 in the assay with HL-60 lay in the range of 0.1 to 5 µM; in the assay on Z138, 100 to 5000 nM; in the assay on K562, 0.1 to 5 µM; in the assay with HEL92.1.7, 0.1 to 5 µM; in the assay with NCI-H929 it was 0.1 to 5 µM; in the assay on HepG2, 0.1 to 5 µM. For the same molecule, the IC50 in [1] was 0.1 to 5 µM.

As for `C[C@H](NP(=O)(OC[C@H]1O[C@@H](n2c(Cl)nc3c(N)ncnc32)[C@H](O)[C@@H]1O)Oc1ccccc1)C(=O)OCc1ccccc1` (mixture of isomers) [C, (2S)-Benzyl 2-(((((2R,3S,4R,5R)-5-(6-amino-8-chloro-9H-purin-9-yl)-3,4-dihydroxy-tetrahydrofuran-2-yl)methoxy)(phenoxy)phosphoryl)amino)propanoate], the IC50 was in the range of 15 to 100 µM with Jurkat; 15 to 100 µM with Murine leukemia L1210; 15 to 100 µM in the assay on MCF7; 15 to 100 µM in the assay on RL; 5 to 15 µM with CCRFCEM; 15 to 100 µM in the assay on A549. Moreover, the IC50 with HS445 was above 100 µM; with HL-60, 5 to 15 µM; with Z138 it was 100 to 5000 nM; with K562 it was 15 to 100 µM; in the assay on HEL92.1.7, 15 to 100 µM; in the assay with NCI-H929 it was 5 to 15 µM. For the same molecule, the values for the IC50 (in the assay on HepG2; in assay [1]) were 15 to 100 µM and 5 to 15 µM, respectively.

One may read the IC50 as the midpoint of a concentration-inhibition curve.
